Experimental findings from patent EP1752193A1, “Use of one or more cyclic 1,2-alkylene carbonates as stabilizer and activity enhancer for preservatives, corresponding composition” (Dr. Straetmans Chemische Produkte GmbH, priority 2005, dated 2007) are described below.

What all share (format): cell-based
The subject of assay [1] is Mikroorganismen. Briefly: synergistic enhancement of antimicrobial agents by cyclic 1,2-alkylene carbonates. The settings on record: combination of cyclic 1,2-alkylene carbonate with preservative or antimicrobial additive. The source says:
Die Verwendung dieser zyklischen 1,2-Alkylencarbonate zur Herstellung von Mischungen mit herkömmlichen Konservierungsmitteln und der erfindungsgemäße Einsatz dieser Mischungen in kosmetischen oder dermatologischen Anwendungen zeigte überraschenderweise, dass die Effizienz der Konservierungsmittel in Konzentrationen, die für sich allein keine antimikrobielle Wirkung mehr zeigten, durch den Zusatz der zyklischen 1,2-Alkylencarbonate erheblich gesteigert werden kann und somit der Anteil der Konservierungsmittel in den entsprechenden Produkten signifikant gesenkt werden konnte.
Zyklische 1,2-Alkylencarbonate, für die dieser synergistische Effekt nachgewiesen werden konnten, finden sich bevorzugt in der Gruppe der linearen und verzweigten 1,2-Alkylencarboate mit einer Kettenlänge von n = 4 - 8, z.B. 1,2-Butylencarbonat, 1,2-Pentylencarbonat, 1,2-Hexylencarbonat und 1,2-Octylencarbonat.
Konservierungsmittel im Sinne der Erfindung, für die dieser synergistische Effekt nachgewiesen werden konnte, sind Methylparaben, Ethylparaben, Propylparaben, Isopropylparaben, Butylparaben und die Mischungen dieser Parabene, Phenoxyethanol, Benzoesäure und ihre Ester und Salze, Sorbinsäure und ihre Salze sowie Benzylalkohol. Die zu erwartenden synergistischen Effekte von 1,2-Alkylencarbonaten mit Iodopropinylbutylcarbamat, Formaldehyd and Formaldehyd-Abspalter (z.B. DMDM-Hydantoin, Imidazolinylharnstoff, Paraformaldehyd), Chlorphenesin, Bronopol, Methyldibromglutaronitril, Dehydracetsäure und ihre Salze, Polyaminopropylbiguanide, Chlorhexidin und seine Derivate (z.B. Chlorhexidinacetat, Chlorhexidingluconat, Chlorhexidinhydrochlorid), Methylisothiazolinon und Methylchloroisothiazolinone neben den in Anhang 6, Teil A und B der Kosmetikverordnung aufgeführten weiteren Stoffklassen oder Mischungen der genannten Konservierungsmittel werden ebenfalls in dieser Erfindung beansprucht.
Multifunktionellen Kosmetikadditive mit antimikrobiellen Eigenschaften im Sinne dieser Erfindung finden sich vor allem in der Gruppe der mittelkettigen polaren Substanzen. Diese Gruppe umfasst Polyole mit 5 - 12 Kohlenstoffatomen, wie z.B. Pentylenglycol, Hexylenglycol, 1,2-Hexandiol, Caprylyl Glycol oder 2-Methyl-1,3-propandiol, Monoester aus Glycerin und Fettsäuren der Kettenlänge n = 6 - 12, wie z.B. Glyceryl Caprylate, Glyceryl Caprate oder Glyceryl Laurate, Ether der Glycerins mit linearen oder verzweigten Alkanolen der Kettenlänge n = 6 - 12, wie z.B. das Ethylhexylglycerin sowie N-Acylderivate von Aminosäuren, z.B. N.Undecenylglycin.

Assay [2] has as its system Pseudomonas Aeruginosa. The experiment in a line: microbiological challenge test (preservative efficacy, Ph. Eur. 1997 5.1.3). The settings on record: emulsion with 0,50 preservative, 2,00 carbonate where named. The source says: (§1) Ergebnisse des mikrobiologischen Belastungstests, durchgeführt nach europäischem Arzneibuch 1997: 5.1.3 Prüfung auf ausreichende Konservierung (entspricht Deutschem Arzneibuch: VIII.14) für die Beispielrezeptur nach 1.:
(§2) Ergebnisse des mikrobiologischen Belastungstests, durchgeführt nach europäischem Arzneibuch 1997: 5.1.3 Prüfung auf ausreichende Konservierung (entspricht Deutschem Arzneibuch: VIII.14) für die Beispielrezeptur nach 3.:
(§3) Ergebnisse des mikrobiologischen Belastungstests, durchgeführt nach europäischem Arzneibuch 1997: 5.1.3 Prüfung auf ausreichende Konservierung (entspricht Deutschem Arzneibuch: VIII.14) für die Beispielrezeptur nach 4.:
(§4) Ergebnisse des mikrobiologischen Belastungstests, durchgeführt nach europäischem Arzneibuch 1997: 5.1.3 Prüfung auf ausreichende Konservierung (entspricht Deutschem Arzneibuch: VIII.14) für die Beispielrezeptur nach 5.:
(§5) Ergebnisse des mikrobiologischen Belastungstests, durchgeführt nach europäischem Arzneibuch 1997: 5.1.3 Prüfung auf ausreichende Konservierung (entspricht Deutschem Arzneibuch: VIII.14) für die Beispielrezeptur nach 6.: […]

For assay [3], the system named is Escherichia Coli. Described as above. The settings on record: emulsion with 0,50 preservative, 2,00 carbonate where named.
From the text: as §1, §2, §3, §4, §5

The subject of assay [4] is Aspergillus Niger. Described as above. The settings on record: emulsion with 0,50 preservative, 2,00 carbonate where named.
From the text: as §1, §2, §3, §4, §5

In assay [5] the test system is Candida Albicans. The assay is described as above. The settings on record: emulsion with 0,50 preservative, 2,00 carbonate where named.
From the text: as §1, §2, §3, §4, §5

In assay [6] the test system is Staphylococcus aureus. The description is as above. The settings on record: emulsion with 0,50 preservative, 2,00 carbonate where named.
From the text: as §1, §2, §3, §4, §5

As for `CCC1COC(=O)O1` (stereo not drawn) [BC, 1,2-Butylencarbonat], the “synergistische Effekt” value in assay [1] is listed as “Besonders ausgeprägt Effekte”.
The same measure, in the same setting: the result for `CCCCCCC(O)CO` (stereo not drawn) [Caprylyl Glycol] reads “Besonders ausgeprägte Effekte”; that for `CCCC1COC(=O)O1` (stereo not drawn) [PC, 1,2-Pentylencarbonat], “Besonders ausgeprägt Effekte”.
For `OCCOc1ccccc1` [Phenoxyethanol], the “Koloniebildende Einheiten / g nach Beimpfung mit: Pseudomonas Aeruginosa” value was 600000 Koloniebildende Einheiten / g in assay [2] (0 Tage (inoculum)); 8000 Koloniebildende Einheiten / g in assay [2] (2 Tage); 10000 Koloniebildende Einheiten / g in assay [2] (7 Tage); 10000 Koloniebildende Einheiten / g in assay [2] (14 Tage); 10000 Koloniebildende Einheiten / g in assay [2] (28 Tage). For the same compound, the “Koloniebildende Einheiten / g nach Beimpfung mit: Escherichia Coli” value is 3000000 Koloniebildende Einheiten / g in assay [3] (0 Tage (inoculum)); 100000 Koloniebildende Einheiten / g in assay [3] (2 Tage); 100000 Koloniebildende Einheiten / g in assay [3] (7 Tage); 100000 Koloniebildende Einheiten / g in assay [3] (14 Tage); 70000 Koloniebildende Einheiten / g in assay [3] (28 Tage). Moreover, the “Koloniebildende Einheiten / g nach Beimpfung mit: Aspergillus Niger” value is listed as 320000 Koloniebildende Einheiten / g in assay [4] (0 Tage (inoculum)); 60000 Koloniebildende Einheiten / g in assay [4] (2 Tage); 60000 Koloniebildende Einheiten / g in assay [4] (7 Tage); 60000 Koloniebildende Einheiten / g in assay [4] (14 Tage); 50000 Koloniebildende Einheiten / g in assay [4] (28 Tage). Also, the “Koloniebildende Einheiten / g nach Beimpfung mit: Candida Albicans” value is reported as 310000 Koloniebildende Einheiten / g in assay [5] (0 Tage (inoculum)); 100000 Koloniebildende Einheiten / g in assay [5] (2 Tage); 100000 Koloniebildende Einheiten / g in assay [5] (7 Tage); 100000 Koloniebildende Einheiten / g in assay [5] (14 Tage); 80000 Koloniebildende Einheiten / g in assay [5] (28 Tage). The “Koloniebildende Einheiten / g nach Beimpfung mit: Staphylococcus aureus” value in assay [6] (0 Tage (inoculum)) was 380000 Koloniebildende Einheiten / g; in assay [6] (2 Tage), 100000 Koloniebildende Einheiten / g; in assay [6] (7 Tage), 100000 Koloniebildende Einheiten / g; in assay [6] (14 Tage), 84000 Koloniebildende Einheiten / g; in assay [6] (28 Tage), 80000 Koloniebildende Einheiten / g.
In the case of `OCc1ccccc1` [Benzylalkohol], the “Koloniebildende Einheiten / g nach Beimpfung mit: Pseudomonas Aeruginosa” value in assay [2] (0 Tage (inoculum)) was 210000 Koloniebildende Einheiten / g; in assay [2] (2 Tage), 40000 Koloniebildende Einheiten / g; in assay [2] (7 Tage), 12000 Koloniebildende Einheiten / g; in assay [2] (14 Tage) it was 1000 Koloniebildende Einheiten / g; in assay [2] (28 Tage) it was <10 Koloniebildende Einheiten / g. For the same compound, the “Koloniebildende Einheiten / g nach Beimpfung mit: Escherichia Coli” value in assay [3] (0 Tage (inoculum)) is reported as 810000 Koloniebildende Einheiten / g; in assay [3] (2 Tage) it was 100000 Koloniebildende Einheiten / g; in assay [3] (7 Tage), 100000 Koloniebildende Einheiten / g; in assay [3] (14 Tage) it was 52000 Koloniebildende Einheiten / g; in assay [3] (28 Tage), 8000 Koloniebildende Einheiten / g. Moreover, the “Koloniebildende Einheiten / g nach Beimpfung mit: Aspergillus Niger” value in assay [4] (0 Tage (inoculum)) is given as 170000 Koloniebildende Einheiten / g; in assay [4] (2 Tage), 64000 Koloniebildende Einheiten / g; in assay [4] (7 Tage) it was 60000 Koloniebildende Einheiten / g; in assay [4] (14 Tage) it was 59000 Koloniebildende Einheiten / g; in assay [4] (28 Tage), 61000 Koloniebildende Einheiten / g. Besides, the “Koloniebildende Einheiten / g nach Beimpfung mit: Candida Albicans” value in assay [5] (0 Tage (inoculum)) was 410000 Koloniebildende Einheiten / g; in assay [5] (2 Tage), 70000 Koloniebildende Einheiten / g; in assay [5] (7 Tage), 50000 Koloniebildende Einheiten / g; in assay [5] (14 Tage), 50000 Koloniebildende Einheiten / g; in assay [5] (28 Tage), 45000 Koloniebildende Einheiten / g. The “Koloniebildende Einheiten / g nach Beimpfung mit: Staphylococcus aureus” value in assay [6] (0 Tage (inoculum)) is reported as 250000 Koloniebildende Einheiten / g; in assay [6] (2 Tage), 100000 Koloniebildende Einheiten / g; in assay [6] (7 Tage), 4000 Koloniebildende Einheiten / g; in assay [6] (14 Tage), <10 Koloniebildende Einheiten / g; in assay [6] (28 Tage), <10 Koloniebildende Einheiten / g.
Turning to `CCCCCCCC(=O)OCC(O)CO` (stereo not drawn) [Glyceryl Caprylate], in assay [1], the “synergistische Effekt” value was “Besonders ausgeprägte Effekte”.
